“Also recorded” adds a separate entry of the source.
Experiments:
[1] = test system: LPS-induced neutrophil influx into bronchoalveolar lavage fluid; assay: LPS-induced lung inflammation model: inhibition of LPS-induced neutrophil influx into bronchoalveolar lavage fluid; type: in vivo, male Wistar rats; details: for ED50 (half-maximal effective dose), inhibition of LPS-induced neutrophil influx into BALF: male Wistar rats, oral by gavage, BALF 4 hours after end of LPS exposure, nonlinear fit; for ED50 found in efficacy studies in the rat (restated in dose table): p.o., LPS-induced neutrophil influx
Description: The anti-inflammatory activity of Examples 1 and 2 and of Prior art compounds A and D was assessed in an in vivo LPS-induced lung inflammation model in rats.
As a measure of the pharmacological potency of the above mentioned compounds the half-maximal effective dose (ED50) in regard to the inhibition of lipopolysaccharide-induced (LPS-induced) neutrophil influx into the bronchoalveolar lavage fluid (BALF) was determined by assessing the dose response relationship. Bacterial endotoxins (lipopolysaccharides [LPS]) are components of the outer bacterial cell membrane which play an important role in the pathogenesis of infections with gram-negative bacteria. It is known that inhalation of such aerosolized LPS induces a dose-dependent increase in neutrophils to lung tissues and airspaces in rats which may be detected by analyzing the amount of neutrophils in the bronchoalveolar lavage fluid (BALF). However, this dose-dependent increase of neutrophils in the BALF should be diminished in a dose-dependent way in the presence of an effective PDE4-inhibitor.
Male Wistar rats (HanWistar) from an approved local distributor were used for the experiments. The ordered weight of the animals was in the range of 200-250 g. Animals were fasted overnight before the experiment. A total number of 32 animals were used for each experiment. Eight animals (n=8) per dose were used for the treatment groups, […].
The animals of the LPS-control and of the negative control groups received“vehicle only” (“vehicle only” corresponds to 10 ml/kg body weight 0.5% Natrosol solution). The other groups were treated with the different doses of either Example compound 1, Example compound 2, Prior art compound A or Prior art compound D respectively (see Table D).
The amount of compound for the highest concentration tested for each compound was suspended in 10 ml 0.5% Natrosol (Hydroxyethylcellulose) solution and then diluted to the respective concentrations as shown in Table D. The respective compound suspension or “vehicle only” (10 ml/kg body weight 0.5% Natrosol solution) was administered orally by gavage. The resulting doses of the individual compounds corresponded to Table D:
One hour (0.5 hour for Prior art compound A and for Prior art compound D) after compound application (time set to allow for sufficient exposure as guided by prior pharmacokinetic experiments) the animals were exposed to nebulised/aerosolized LPS. The whole body exposure of 12 animals each was performed in a plexi glas chamber. Animals were separated/individualized with perforated metal plates. The aerosol was generated with a commercially available nebuliser (PARI Master+PARI LL nebuliser (Pari GmbH). The concentration of the nebulized LPS-solution was 1 mg/ml air. The duration of the LPS exposure was 30 minutes.
4 hours after the end of LPS exposure animals were anesthetised with Isoflorane and euthanised thereafter by cervical dislocation. The trachea was cannulated and BALF was performed using 2×5 mL lavage buffer (phosphate buffered saline (PBS)+2% BSA).
Determination of neutrophil content of the BALF was performed using an ADVIA 120 blood hemacytometer (Bayer Diagnostics). Neutrophil data were normalised (Positive Control (=LPS treatment alone)=100%, Negative Control (no LPS treatment, administration of “vehicle only”)=0%) and expressed as percent of LPS control. The ED50 was calculated using a nonlinear fit (with the Graph Pad Prism software and a sigmoidal dose response fit).
The ED50-value is the half-maximal effective dosis of the compound in question with respect to its inhibition of an LPS-induced neutrophil influx into BALF. Consequently a very small ED50-value stands for a good capability of the respective compound to prevent neutrophil influx into the lung tissue after LPS exposure and therefore for a good capacity of the respective compound to prevent inflammation of the lung tissue. […]

[2] = Gastric emptying and gastrointestinal transit in conscious rats (barium sulfate test meal); type: in vivo, Wistar rats; details: for intestinal transit versus negative control: doses up to 30-fold ED50 dose p.o.
Description: In order to evaluate whether the compounds of the present invention lead to gastrointestinal side effects the compounds of the invention have been administered to rats 30 minutes before the rats were fed with a test meal comprising barium sulfate. After that it was tested whether gastric emptying and/or gastrointestinal transit in these rats was affected by the presence of these compounds.
The effects of the compounds Example 1 and Example 2 on gastric emptying and gastrointestinal transit in conscious rats has been investigated as described below. Wistar rats of both sexes weighing 130-160 g (ages: male 7 wk, female 8 wk) were used. The animals are obtained from an approved local distributor, a minimum of four days quarantine is required before use, during which time the animals are maintained under routine animal care procedures. Groups of up to 5 animals are housed in cages in a room with controlled temperature and humidity and a light/dark cycle with the lights on from 6 a.m. to 6 p.m. The animals have access to normal rodent chow and water ad libitum. The animals are transported to the laboratory on the day of experimentation. Gastric emptying as well as small intestinal propulsion are determined using a barium sulfate test meal. Five rats Crl:WI(Han) of each sex (n=10) were used. The animals were deprived of food 17 h prior to the experiment but allowed free access to water.
The drug under investigation (drug was suspended to the concentration of 10 ml/kg body weight in 0.5% Natrosol solution) or the negative control (vehicle alone was given 10 ml/kg body weight) was administered 30 min. (p.o.) before the test meal at doses calculated to be 3-fold, 10-fold or 30-fold the ED50 found in efficacy studies in the rat.
The test meal (suspension of 7.5 g barium sulfate in 10 ml salt-free water) is given orally by gavage at a dose of 2 ml/100 g body weight. Thirty minutes after the administration of the test meal the animals were killed in deep isoflurane anaesthesia by cervical dislocation. The stomach and the intestine were then exposed by laparatomy and removed.
The removed stomach was weighed, then incised, the contents removed and the empty stomach is weighed again.
The length of gut traversed with barium sulfate in relation to the whole length of the gut is determined by direct measurements using a ruler.
The gastric content was calculated from the weight difference between the filled and empty stomach and normalized to 100 g body weight. Thus, an increase in weight difference indicated an impaired gastric emptying, whereas a decrease in weight difference indicated an enhanced gastric emptying.
The length of gut traversed with barium sulphate (as judged by visual inspection) in relation to the whole length of the gut (from the pylorus to the rectum) is determined by direct measurements using a ruler.
Intestinal transit is calculated as the percentage movement of barium sulphate in the intestine in relation to the whole length of the gut. Consequently an increased intestinal transit length indicated an accelerated intestinal transit whereas a decreased intestinal transit length indicated decelerated intestinal transit.
Data are expressed as mean±standard deviation (SD). For each dose, comparisons were performed using an analysis of variance (ANOVA) and a post hoc Dunnett test to compare the various groups to the controls when the ANOVA was significant. p<0.05 was considered significant.

[3] = all tested doses up to 30-fold ED50 dose p.o.

| SMILES | ED50 (half-maximal effective dose), inhibition of LPS-induced neutrophil influx into BALF [1] [mg/kg body weight] | ED50 found in efficacy studies in the rat (restated in dose table) [1] | gastric emptying versus negative control ([2]; 3-fold ED50 dose p.o., 30 min before test meal) | gastric emptying versus negative control ([2]; 10-fold ED50 dose p.o., 30 min before test meal) | gastric emptying versus negative control ([2]; 30-fold ED50 dose p.o., 30 min before test meal) | gastric emptying versus negative control [2, 3] | intestinal transit versus negative control [2] |
| --- | --- | --- | --- | --- | --- | --- | --- |
| [O-][S+]1CCc2nc(N3CCC(c4ccc(Cl)cc4)CC3)nc(NC3(CO)CCC3)c21 (single isomer, unassigned) [Example 1] | 0.31 | (ED50 = 0.31 mg/kg BW | no relevant differences | no relevant differences | only a very moderate enhancement of the weight difference per body weight | neither showed a substantially enhanced or impaired gastric emptying | nor a substantially accelerated or decelerated intestinal transit; also recorded: no significant differences |
| [O-][S+]1CCc2nc(N3CCC(c4ncc(Cl)cn4)CC3)nc(NC3(CO)CCC3)c21 (single isomer, unassigned) [Example 2] | 0.1 | (ED50 = 0.1 mg/kg BW |  |  |  | neither showed a substantially enhanced or impaired gastric emptying; also recorded: no relevant differences | nor a substantially accelerated or decelerated intestinal transit; also recorded: no relevant differences |
| [O-][S+]1CCc2nc(N3CCC(c4ccc(Cl)cc4)CC3)nc(NC3(CO)CC3)c21 (stereo not shown) [Prior art compound A, reference compound] | 1.13 |  |  |  |  |  |  |
| [O-][S+]1CCc2nc(N3CCC(c4cccc(Cl)c4)CC3)nc(NC3(CO)CC3)c21 (stereo not shown) [Prior art compound D, reference compound] | 6.66 |  |  |  |  |  |  |
